Assay results reported in the NIST ThermoML archive (doi:10.1021/je501133u).

Assay: xn = mol fraction of the nth substance listed
Conditions: 100 kPa, Liquid; for viscosity: Falling or rolling sphere viscometry; for mass density: Vibrating tube method

CCCCCCCO [heptan-1-ol] + CCO
Conditions | mass density [kg/m3] | viscosity [mPa·s]
293.15 K, x2 = 0 | 822.3 | 7.15
293.15 K, x2 = 0.1 | 820.6 | 6.21
293.15 K, x2 = 0.2004 | 818.7 | 5.36
293.15 K, x2 = 0.3007 | 816.9 | 4.63
293.15 K, x2 = 0.3995 | 814.7 | 4.04
293.15 K, x2 = 0.5007 | 812.1 | 3.41
293.15 K, x2 = 0.5995 | 809 | 2.85
293.15 K, x2 = 0.7001 | 805.5 | 2.34
293.15 K, x2 = 0.8002 | 801.4 | 1.9
293.15 K, x2 = 0.9003 | 796.5 | 1.52
298.15 K, x2 = 0 | 818.8 | 6.07
298.15 K, x2 = 0.1 | 817.1 | 5.29
298.15 K, x2 = 0.2004 | 815.1 | 4.59
298.15 K, x2 = 0.3007 | 813.3 | 4
298.15 K, x2 = 0.3995 | 811.1 | 3.51
298.15 K, x2 = 0.5007 | 808.4 | 2.99
298.15 K, x2 = 0.5995 | 805.3 | 2.52
298.15 K, x2 = 0.7001 | 801.6 | 2.09
298.15 K, x2 = 0.8002 | 797.4 | 1.71
298.15 K, x2 = 0.9003 | 792.4 | 1.38
303.15 K, x2 = 0 | 815.3 | 5.18
303.15 K, x2 = 0.1 | 813.6 | 4.54
303.15 K, x2 = 0.2004 | 811.6 | 3.96
303.15 K, x2 = 0.3007 | 809.7 | 3.48
303.15 K, x2 = 0.3995 | 807.4 | 3.07
303.15 K, x2 = 0.5007 | 804.7 | 2.64
303.15 K, x2 = 0.5995 | 801.5 | 2.23
303.15 K, x2 = 0.7001 | 797.8 | 1.87
303.15 K, x2 = 0.8002 | 793.5 | 1.54
303.15 K, x2 = 0.9003 | 788.3 | 1.25
308.15 K, x2 = 0 | 811.8 | 4.44
308.15 K, x2 = 0.1 | 810 | 3.91
308.15 K, x2 = 0.2004 | 808 | 3.44
308.15 K, x2 = 0.3007 | 806 | 3.03
308.15 K, x2 = 0.3995 | 803.8 | 2.7
308.15 K, x2 = 0.5007 | 800.9 | 2.33
308.15 K, x2 = 0.5995 | 797.7 | 1.99
308.15 K, x2 = 0.7001 | 793.9 | 1.67
308.15 K, x2 = 0.8002 | 789.5 | 1.39
308.15 K, x2 = 0.9003 | 784.2 | 1.13
313.15 K, x2 = 0 | 808.2 | 3.83
313.15 K, x2 = 0.1 | 806.4 | 3.39
313.15 K, x2 = 0.2004 | 804.4 | 3
313.15 K, x2 = 0.3007 | 802.4 | 2.66
313.15 K, x2 = 0.3995 | 800.1 | 2.38
313.15 K, x2 = 0.5007 | 797.2 | 2.07
313.15 K, x2 = 0.5995 | 793.8 | 1.78
313.15 K, x2 = 0.7001 | 790 | 1.5
313.15 K, x2 = 0.8002 | 785.4 | 1.26
313.15 K, x2 = 0.9003 | 780 | 1.03
318.15 K, x2 = 0 | 804.6 | 3.33
318.15 K, x2 = 0.1 | 802.8 | 2.96
318.15 K, x2 = 0.2004 | 800.7 | 2.63
318.15 K, x2 = 0.3007 | 798.7 | 2.35
318.15 K, x2 = 0.3995 | 796.3 | 2.11
318.15 K, x2 = 0.5007 | 793.4 | 1.85
318.15 K, x2 = 0.5995 | 790 | 1.6
318.15 K, x2 = 0.7001 | 786 | 1.36
318.15 K, x2 = 0.8002 | 781.4 | 1.14
318.15 K, x2 = 0.9003 | 775.8 | 0.94
323.15 K, x2 = 0 | 801 | 2.89
323.15 K, x2 = 0.1 | 799.1 | 2.59
323.15 K, x2 = 0.2004 | 797 | 2.31
323.15 K, x2 = 0.3007 | 794.9 | 2.08
323.15 K, x2 = 0.3995 | 792.5 | 1.88
323.15 K, x2 = 0.5007 | 789.5 | 1.65
323.15 K, x2 = 0.5995 | 786 | 1.44
323.15 K, x2 = 0.7001 | 782 | 1.23
323.15 K, x2 = 0.8002 | 777.2 | 1.04
323.15 K, x2 = 0.9003 | 771.5 | 0.87
328.15 K, x2 = 0 | 797.4 | 2.54
328.15 K, x2 = 0.1 | 795.4 | 2.28
328.15 K, x2 = 0.2004 | 793.3 | 2.05
328.15 K, x2 = 0.3007 | 791.2 | 1.84
328.15 K, x2 = 0.3995 | 788.7 | 1.68
328.15 K, x2 = 0.5007 | 785.6 | 1.48
328.15 K, x2 = 0.5995 | 782.1 | 1.29
328.15 K, x2 = 0.7001 | 777.9 | 1.11
328.15 K, x2 = 0.8002 | 773 | 0.94
328.15 K, x2 = 0.9003 | 767.1 | 0.79

CCCCCCO [hexan-1-ol] + CCO
Conditions | mass density [kg/m3] | viscosity [mPa·s]
293.15 K, x2 = 0 | 818.9 | 5.35
293.15 K, x2 = 0.1001 | 816.7 | 4.67
293.15 K, x2 = 0.2003 | 815.1 | 4.15
293.15 K, x2 = 0.3004 | 813.3 | 3.66
293.15 K, x2 = 0.4006 | 811.6 | 3.19
293.15 K, x2 = 0.4998 | 808.7 | 2.76
293.15 K, x2 = 0.6009 | 806 | 2.41
293.15 K, x2 = 0.7001 | 802.9 | 2.03
293.15 K, x2 = 0.7995 | 799.2 | 1.71
293.15 K, x2 = 0.9001 | 794.9 | 1.43
298.15 K, x2 = 0 | 815.3 | 4.56
298.15 K, x2 = 0.1001 | 813.1 | 4.02
298.15 K, x2 = 0.2003 | 811.5 | 3.6
298.15 K, x2 = 0.3004 | 809.7 | 3.19
298.15 K, x2 = 0.4006 | 807.9 | 2.8
298.15 K, x2 = 0.4998 | 805 | 2.44
298.15 K, x2 = 0.6009 | 802.2 | 2.14
298.15 K, x2 = 0.7001 | 798.9 | 1.81
298.15 K, x2 = 0.7995 | 795.2 | 1.54
298.15 K, x2 = 0.9001 | 790.8 | 1.29
303.15 K, x2 = 0 | 811.7 | 3.9
303.15 K, x2 = 0.1001 | 809.5 | 3.48
303.15 K, x2 = 0.2003 | 807.8 | 3.14
303.15 K, x2 = 0.3004 | 806 | 2.8
303.15 K, x2 = 0.4006 | 804.1 | 2.47
303.15 K, x2 = 0.4998 | 801.2 | 2.17
303.15 K, x2 = 0.6009 | 798.4 | 1.91
303.15 K, x2 = 0.7001 | 795 | 1.63
303.15 K, x2 = 0.7995 | 791.2 | 1.39
303.15 K, x2 = 0.9001 | 786.6 | 1.17
308.15 K, x2 = 0 | 808.1 | 3.36
308.15 K, x2 = 0.1001 | 805.9 | 3.03
308.15 K, x2 = 0.2003 | 804.2 | 2.75
308.15 K, x2 = 0.3004 | 802.3 | 2.47
308.15 K, x2 = 0.4006 | 800.4 | 2.19
308.15 K, x2 = 0.4998 | 797.4 | 1.93
308.15 K, x2 = 0.6009 | 794.5 | 1.71
308.15 K, x2 = 0.7001 | 791.1 | 1.47
308.15 K, x2 = 0.7995 | 787.1 | 1.26
308.15 K, x2 = 0.9001 | 782.5 | 1.07
313.15 K, x2 = 0 | 804.5 | 2.91
313.15 K, x2 = 0.1001 | 802.2 | 2.65
313.15 K, x2 = 0.2003 | 800.5 | 2.42
313.15 K, x2 = 0.3004 | 798.5 | 2.18
313.15 K, x2 = 0.4006 | 796.6 | 1.94
313.15 K, x2 = 0.4998 | 793.6 | 1.73
313.15 K, x2 = 0.6009 | 790.6 | 1.54
313.15 K, x2 = 0.7001 | 787.1 | 1.32
313.15 K, x2 = 0.7995 | 783 | 1.14
313.15 K, x2 = 0.9001 | 778.2 | 0.97
318.15 K, x2 = 0 | 800.8 | 2.54
318.15 K, x2 = 0.1001 | 798.5 | 2.33
318.15 K, x2 = 0.2003 | 796.7 | 2.14
318.15 K, x2 = 0.3004 | 794.8 | 1.94
318.15 K, x2 = 0.4006 | 792.7 | 1.73
318.15 K, x2 = 0.4998 | 789.7 | 1.55
318.15 K, x2 = 0.6009 | 786.6 | 1.39
318.15 K, x2 = 0.7001 | 783 | 1.2
318.15 K, x2 = 0.7995 | 778.9 | 1.04
318.15 K, x2 = 0.9001 | 774 | 0.89
323.15 K, x2 = 0 | 797.1 | 2.23
323.15 K, x2 = 0.1001 | 794.8 | 2.06
323.15 K, x2 = 0.2003 | 793 | 1.9
323.15 K, x2 = 0.3004 | 790.9 | 1.73
323.15 K, x2 = 0.4006 | 788.9 | 1.55
323.15 K, x2 = 0.4998 | 785.7 | 1.39
323.15 K, x2 = 0.6009 | 782.6 | 1.25
323.15 K, x2 = 0.7001 | 779 | 1.09
323.15 K, x2 = 0.7995 | 774.7 | 0.94
323.15 K, x2 = 0.9001 | 769.7 | 0.81
328.15 K, x2 = 0 | 793.4 | 1.97
328.15 K, x2 = 0.1001 | 791 | 1.82
328.15 K, x2 = 0.2003 | 789.2 | 1.69
328.15 K, x2 = 0.3004 | 787.1 | 1.54
328.15 K, x2 = 0.4006 | 784.9 | 1.39
328.15 K, x2 = 0.4998 | 781.8 | 1.25
328.15 K, x2 = 0.6009 | 778.6 | 1.13
328.15 K, x2 = 0.7001 | 774.8 | 0.99
328.15 K, x2 = 0.7995 | 770.4 | 0.86
328.15 K, x2 = 0.9001 | 765.3 | 0.75
